Tested on: MV-4-11 cells
Test: Gene expression microarray analysis (Affymetrix PrimeView) and GSEA
Format: cell-based, human
Parameters: RFU PODN (11730768_x_at) / Fold change /veh PODN (11730768_x_at) / RFU LINC00158 (11744669_a_at) / Fold change /veh LINC00158 (11744669_a_at) / RFU DUSP10 (11751237_a_at) / Fold change /veh DUSP10 (11751237_a_at) / RFU ID3 (11757404_x_at) / Fold change /veh ID3 (11757404_x_at) / RFU PLEKHG5 (11737974_s_at) / Fold change /veh PLEKHG5 (11737974_s_at) / RFU LRRC4B (11730491_at) / Fold change /veh LRRC4B (11730491_at) / RFU GIMAP4 (11747438_a_at) / Fold change /veh GIMAP4 (11747438_a_at) / RFU KRT8 (11758183_x_at) / Fold change /veh KRT8 (11758183_x_at) / RFU CNN1 (11734310_a_at) / Fold change /veh CNN1 (11734310_a_at) / RFU VPS37D (11726825_at) / Fold change /veh VPS37D (11726825_at) / RFU C10orf10 (11716522_x_at) / Fold change /veh C10orf10 (11716522_x_at) / RFU KIR2DL2 /// KIR2DL4 /// KIR2DL5A /// KIR2DL5B /// KIR2DS1 /// KIR2DS2 /// KIR2DS3 /// KIR2DS4 /// KIR3DL3 /// KIR3DL3 /// KIR3DS1 (11738374_at) / Fold change /veh KIR2DL2 /// KIR2DL4 /// KIR2DL5A /// KIR2DL5B /// KIR2DS1 /// KIR2DS2 /// KIR2DS3 /// KIR2DS4 /// KIR3DL3 /// KIR3DL3 /// KIR3DS1 (11738374_at) / RFU C1QL1 (11718748_at) / Fold change /veh C1QL1 (11718748_at) / RFU TMPRSS4 (11747572_a_at) / Fold change /veh TMPRSS4 (11747572_a_at) / RFU HAMP (11756126_x_at) / Fold change /veh HAMP (11756126_x_at) / RFU RNFT2 (11725882_a_at) / Fold change /veh RNFT2 (11725882_a_at) / RFU NR4A2 (11747474_a_at) / Fold change /veh NR4A2 (11747474_a_at) / RFU ABCC12 (11746883_a_at) / Fold change /veh ABCC12 (11746883_a_at) / RFU TMEM136 (11760407_x_at) / Fold change /veh TMEM136 (11760407_x_at) / RFU CLDN22 /// WWC2 (11732394_at) / Fold change /veh CLDN22 /// WWC2 (11732394_at) / RFU HLA-DPB1 (11760878_x_at) / Fold change /veh HLA-DPB1 (11760878_x_at) / RFU SPINT1 (11716480_a_at) / Fold change /veh SPINT1 (11716480_a_at) / RFU GAP43 (11754022_s_at) / Fold change /veh GAP43 (11754022_s_at) / RFU A4GNT (11735810_at) / Fold change /veh A4GNT (11735810_at) / RFU PRB3 (11715151_x_at) / Fold change /veh PRB3 (11715151_x_at) / RFU TUBB4B (11761932_at) / Fold change /veh TUBB4B (11761932_at) / RFU CAPN14 (11732068_a_at) / Fold change /veh CAPN14 (11732068_a_at) / RFU TMCC2 (11721928_a_at) / Fold change /veh TMCC2 (11721928_a_at) / RFU IRGQ (11745062_a_at) / Fold change /veh IRGQ (11745062_a_at) / RFU FAM174B (11720279_a_at) / Fold change /veh FAM174B (11720279_a_at) / RFU TMPRSS4 (11748680_a_at) / Fold change /veh TMPRSS4 (11748680_a_at) / RFU FAM212B (11763350_a_at) / Fold change /veh FAM212B (11763350_a_at) / RFU PLEKHG5 (11743358_a_at) / Fold change /veh PLEKHG5 (11743358_a_at) / RFU ZSCAN30 (11745921_a_at) / Fold change /veh ZSCAN30 (11745921_a_at) / RFU CMKLR1 (11741424_a_at) / Fold change /veh CMKLR1 (11741424_a_at) / RFU LOC101060620 /// MAPK8IP1 (11723275_at) / Fold change /veh LOC101060620 /// MAPK8IP1 (11723275_at) / RFU SPTSSB (11747773_x_at) / Fold change /veh SPTSSB (11747773_x_at) / RFU PRSS12 (11739890_at) / Fold change /veh PRSS12 (11739890_at) / RFU BIN1 (11741810_x_at) / Fold change /veh BIN1 (11741810_x_at) / RFU WNT11 (11732464_a_at) / Fold change /veh WNT11 (11732464_a_at) / RFU C10orf10 (11716521_a_at) / Fold change /veh C10orf10 (11716521_a_at) / RFU C5orf56 (11738089_at) / Fold change /veh C5orf56 (11738089_at) / RFU CYB561 (11721691_x_at) / Fold change /veh CYB561 (11721691_x_at) / RFU ANKRD19P (11752326_a_at) / Fold change /veh ANKRD19P (11752326_a_at) / RFU OR2T12 /// OR2T33 /// OR2T8 (11738714_s_at) / Fold change /veh OR2T12 /// OR2T33 /// OR2T8 (11738714_s_at) / RFU VCAN (11748164_a_at) / Fold change /veh VCAN (11748164_a_at) / RFU JSRP1 (11732532_at) / Fold change /veh JSRP1 (11732532_at) / RFU KRTAP10-11 (11738290_x_at) / Fold change /veh KRTAP10-11 (11738290_x_at) / RFU MYO3A (11730013_a_at) / Fold change /veh MYO3A (11730013_a_at) / RFU EBF3 (11725865_a_at) / Fold change /veh EBF3 (11725865_a_at) / RFU CAMK2N1 (11719241_x_at) / Fold change /veh CAMK2N1 (11719241_x_at) / RFU C5orf56 (11738088_a_at) / Fold change /veh C5orf56 (11738088_a_at) / RFU OLFML3 (11715873_a_at) / Fold change /veh OLFML3 (11715873_a_at) / RFU LOC100653217 /// NTM (11731650_a_at) / Fold change /veh LOC100653217 /// NTM (11731650_a_at) / RFU MAPK11 (11762145_a_at) / Fold change /veh MAPK11 (11762145_a_at) / RFU FIZ1 (11724087_x_at) / Fold change /veh FIZ1 (11724087_x_at) / RFU OASL (11726364_x_at) / Fold change /veh OASL (11726364_x_at) / RFU SOX15 (11748057_x_at) / Fold change /veh SOX15 (11748057_x_at) / RFU CD79A (11719716_a_at) / Fold change /veh CD79A (11719716_a_at) / RFU HIST1H1D (11736915_at) / Fold change /veh HIST1H1D (11736915_at) / RFU CASKIN2 (11723855_a_at) / Fold change /veh CASKIN2 (11723855_a_at) / RFU LOC730098 (11760151_x_at) / Fold change /veh LOC730098 (11760151_x_at) / RFU OR4N2 (11742367_at) / Fold change /veh OR4N2 (11742367_at) / RFU PRRT2 (11749266_a_at) / Fold change /veh PRRT2 (11749266_a_at) / RFU SNX32 (11753110_a_at) / Fold change /veh SNX32 (11753110_a_at) / RFU CDHR5 (11726645_a_at) / Fold change /veh CDHR5 (11726645_a_at) / RFU RCAN1 (11760418_a_at) / Fold change /veh RCAN1 (11760418_a_at) / RFU FAM167A (11723789_a_at) / Fold change /veh FAM167A (11723789_a_at) / RFU FAM26E (11764081_at) / Fold change /veh FAM26E (11764081_at) / RFU ISYNA1 (11749810_s_at) / Fold change /veh ISYNA1 (11749810_s_at) / RFU ACY1 (11761880_at) / Fold change /veh ACY1 (11761880_at) / RFU 11764098_at / Fold change /veh 11764098_at / RFU SAMD14 (11745864_x_at) / Fold change /veh SAMD14 (11745864_x_at) / RFU NPB (11741838_a_at) / Fold change /veh NPB (11741838_a_at) / RFU TMPRSS6 (11731388_a_at) / Fold change /veh TMPRSS6 (11731388_a_at) / RFU KRTAP10-2 (11738614_at) / Fold change /veh KRTAP10-2 (11738614_at) / RFU ARHGAP8 /// PRR5-ARHGAP8 (11727945_x_at) / Fold change /veh ARHGAP8 /// PRR5-ARHGAP8 (11727945_x_at) / RFU KRTAP5-7 /// NADSYN1 (11734609_at) / Fold change /veh KRTAP5-7 /// NADSYN1 (11734609_at) / RFU RASL12 (11751679_a_at) / Fold change /veh RASL12 (11751679_a_at) / RFU CDKN2B (11736163_a_at) / Fold change /veh CDKN2B (11736163_a_at) / RFU PRF1 (11729649_at) / Fold change /veh PRF1 (11729649_at) / RFU, ZNF638 /// ZNF638-IT1 / Fold change vs veh, ZNF638 /// ZNF638-IT1 / RFU, PANK3 / Fold change vs veh, PANK3 / RFU, SH3YL1 / Fold change vs veh, SH3YL1 / RFU, ZEB2 / Fold change vs veh, ZEB2 / RFU, NRIP1 / Fold change vs veh, NRIP1 / RFU, PTTG1IP / Fold change vs veh, PTTG1IP / RFU, CAPN2 / Fold change vs veh, CAPN2 / RFU, MED14 / Fold change vs veh, MED14 / RFU, SNORA58 / Fold change vs veh, SNORA58 / RFU, C1orf63 / Fold change vs veh, C1orf63 / RFU, LRRFIP1 / Fold change vs veh, LRRFIP1 / RFU, NDUFAF7 / Fold change vs veh, NDUFAF7 / RFU, SLC12A2 / Fold change vs veh, SLC12A2 / RFU, IBTK / Fold change vs veh, IBTK / RFU, ESF1 / Fold change vs veh, ESF1 / Fold change vs veh, TMEM50B / RFU, TAOK1 / Fold change vs veh, TAOK1 / RFU, ACBD3 / Fold change vs veh, ACBD3 / RFU, TMA16 / Fold change vs veh, TMA16 / RFU, RWDD3 / Fold change vs veh, RWDD3 / RFU, BCAT1 / Fold change vs veh, BCAT1 / RFU, EDEM3 / Fold change vs veh, EDEM3 / RFU, TMEM33 / Fold change vs veh, TMEM33 / RFU, WDR75 / Fold change vs veh, WDR75 / RFU, AHCTF1 / Fold change vs veh, AHCTF1 / RFU, TFRC / Fold change vs veh, TFRC / RFU, ZDHHC17 / Fold change vs veh, ZDHHC17 / RFU, NOM1 / Fold change vs veh, NOM1 / RFU, ARL8B / Fold change vs veh, ARL8B / RFU, ZBTB11 / Fold change vs veh, ZBTB11 / RFU, TAMM41 / Fold change vs veh, TAMM41 / RFU, KIAA1704 /// LOC100996395 / Fold change vs veh, KIAA1704 /// LOC100996395 / RFU, ING1 / Fold change vs veh, ING1 / RFU, TRMT61B / Fold change vs veh, TRMT61B / RFU, FUBP3 / Fold change vs veh, FUBP3 / RFU, TP53 / Fold change vs veh, TP53 / RFU, TNKS2 / Fold change vs veh, TNKS2 / RFU, ZFP14 / Fold change vs veh, ZFP14 / RFU, ACTR2 / Fold change vs veh, ACTR2 / RFU, PPP3R1 / Fold change vs veh, PPP3R1 / RFU, PIK3R1 / Fold change vs veh, PIK3R1 / RFU, HNRNPA1 / Fold change vs veh, HNRNPA1 / RFU, RNF170 / Fold change vs veh, RNF170 / RFU, ZNF28 / Fold change vs veh, ZNF28 / RFU, RNGTT / Fold change vs veh, RNGTT / RFU, OGT / Fold change vs veh, OGT / RFU, BRD1 / Fold change vs veh, BRD1 / RFU, MARS / Fold change vs veh, MARS / RFU, ZNF655 / Fold change vs veh, ZNF655 / RFU, FAHD1 / Fold change vs veh, FAHD1 / RFU, BDP1 / Fold change vs veh, BDP1 / RFU, LRRCC1 / Fold change vs veh, LRRCC1 / RFU, ARID1A / Fold change vs veh, ARID1A / RFU, ZNF146 / Fold change vs veh, ZNF146 / RFU, ZNF330 / Fold change vs veh, ZNF330 / RFU, GPN3 / Fold change vs veh, GPN3 / RFU, C9orf123 / Fold change vs veh, C9orf123 / RFU, N4BP2L2 / Fold change vs veh, N4BP2L2 / RFU, ARFIP1 / Fold change vs veh, ARFIP1 / RFU, FAM179B / Fold change vs veh, FAM179B / RFU, BCL10 / Fold change vs veh, BCL10 / RFU, UHRF1BP1L / Fold change vs veh, UHRF1BP1L / RFU, BET1 / Fold change vs veh, BET1 / RFU, CNOT2 / Fold change vs veh, CNOT2 / RFU, ZNF268 / Fold change vs veh, ZNF268 / Fold change vs veh, ZNF507 / RFU, DGCR2 / Fold change vs veh, DGCR2 / RFU, WDSUB1 / Fold change vs veh, WDSUB1 / Fold change vs veh, HSP90B1 /// MIR3652 / RFU, ADSS / Fold change vs veh, ADSS / RFU, GK / Fold change vs veh, GK / RFU, ZNF148 / Fold change vs veh, ZNF148 / RFU, TAF9 / Fold change vs veh, TAF9 / RFU, SLC1A5 / Fold change vs veh, SLC1A5 / RFU, SLMO2 / Fold change vs veh, SLMO2 / RFU, ABCC4 / Fold change vs veh, ABCC4 / RFU, LOC101060439 /// RAP1B / Fold change vs veh, LOC101060439 /// RAP1B / RFU, RFX7 / Fold change vs veh, RFX7 / RFU, GTPBP10 / Fold change vs veh, GTPBP10 / RFU, CNEP1R1 / Fold change vs veh, CNEP1R1 / RFU, BIVM-ERCC5 /// ERCC5 / Fold change vs veh, BIVM-ERCC5 /// ERCC5 / RFU, ILF3 / Fold change vs veh, ILF3 / RFU 11762660_at / Fold change /veh 11762660_at / RFU VCAN (11757783_s_at) / Fold change /veh VCAN (11757783_s_at) / RFU DDX43 (11728927_at) / Fold change /veh DDX43 (11728927_at) / RFU KRT8 (11758188_x_at) / Fold change /veh KRT8 (11758188_x_at) / RFU NKD1 (11759106_at) / Fold change /veh NKD1 (11759106_at) / RFU SRD5A1 (11742802_a_at) / Fold change /veh SRD5A1 (11742802_a_at) / RFU TPSAB1 /// TPSB2 (11721975_s_at) / Fold change /veh TPSAB1 /// TPSB2 (11721975_s_at) / RFU GSTM3 (11746129_a_at) / Fold change /veh GSTM3 (11746129_a_at) / RFU IL23R (11737362_x_at) / Fold change /veh IL23R (11737362_x_at) / RFU TMEM51 (11727254_a_at) / Fold change /veh TMEM51 (11727254_a_at) / RFU PIWIL2 (11732686_x_at) / Fold change /veh PIWIL2 (11732686_x_at) / RFU ORM1 (11744905_x_at) / Fold change /veh ORM1 (11744905_x_at) / RFU CCDC152 (11743942_at) / Fold change /veh CCDC152 (11743942_at) / RFU ECM1 (11717891_a_at) / Fold change /veh ECM1 (11717891_a_at) / RFU IL23R (11748794_a_at) / Fold change /veh IL23R (11748794_a_at) / RFU TNFAIP8L3 (11732012_x_at) / Fold change /veh TNFAIP8L3 (11732012_x_at) / RFU MBOAT4 (11741988_at) / Fold change /veh MBOAT4 (11741988_at) / RFU 11764193_at / Fold change /veh 11764193_at / RFU TMEM53 (11763286_at) / Fold change /veh TMEM53 (11763286_at) / RFU MAGEB2 (11727129_at) / Fold change /veh MAGEB2 (11727129_at) / RFU TMEM200A (11744735_a_at) / Fold change /veh TMEM200A (11744735_a_at) / RFU CCDC152 (11751479_a_at) / Fold change /veh CCDC152 (11751479_a_at) / RFU FAM211A (11726209_a_at) / Fold change /veh FAM211A (11726209_a_at) / RFU RGS16 (11746705_a_at) / Fold change /veh RGS16 (11746705_a_at) / RFU VCAN (11755009_s_at) / Fold change /veh VCAN (11755009_s_at) / RFU RHOB (11743442_s_at) / Fold change /veh RHOB (11743442_s_at) / RFU RGS16 (11720943_a_at) / Fold change /veh RGS16 (11720943_a_at) / RFU RGS16 (11720944_at) / Fold change /veh RGS16 (11720944_at) / RFU, VPS4B / Fold change vs veh, VPS4B / RFU, CREB1 / Fold change vs veh, CREB1 / RFU, DNAJC13 / Fold change vs veh, DNAJC13 / RFU, GNAQ / Fold change vs veh, GNAQ / RFU, CDK5R1 / Fold change vs veh, CDK5R1 / RFU, ZRANB3 / Fold change vs veh, ZRANB3 / RFU, CUL4A / Fold change vs veh, CUL4A / RFU, CCNY / Fold change vs veh, CCNY / RFU, UFL1 / Fold change vs veh, UFL1 / RFU, COG3 / Fold change vs veh, COG3 / RFU, DIAPH2 / Fold change vs veh, DIAPH2 / RFU, SKA2 / Fold change vs veh, SKA2 / RFU, AFF3 / Fold change vs veh, AFF3 / RFU, LMF1 / Fold change vs veh, LMF1 / RFU, IPO11 / Fold change vs veh, IPO11 / RFU, DFFB / Fold change vs veh, DFFB / RFU, FOXP1 / Fold change vs veh, FOXP1 / RFU, CARD8 / Fold change vs veh, CARD8 / RFU, STRN3 / Fold change vs veh, STRN3 / RFU, ADK / Fold change vs veh, ADK / RFU, RASSF2 / Fold change vs veh, RASSF2 / RFU, WIPF1 / Fold change vs veh, WIPF1 / RFU, LARP1B / Fold change vs veh, LARP1B / RFU, RASA1 / Fold change vs veh, RASA1 / RFU, RB1 / Fold change vs veh, RB1 / RFU, PPFIA1 / Fold change vs veh, PPFIA1 / RFU, MAT2A / Fold change vs veh, MAT2A / RFU, CCT5 / Fold change vs veh, CCT5 / RFU, WDR92 / Fold change vs veh, WDR92 / RFU, CUX1 / Fold change vs veh, CUX1 / RFU, TTC7A / Fold change vs veh, TTC7A / RFU, TMEM135 / Fold change vs veh, TMEM135 / RFU, DEPTOR / Fold change vs veh, DEPTOR / RFU, CPM / Fold change vs veh, CPM / RFU, DNAJB6 / Fold change vs veh, DNAJB6 / RFU, CACNA2D3 / Fold change vs veh, CACNA2D3 / RFU, DTX4 / Fold change vs veh, DTX4 / RFU, TFCP2 / Fold change vs veh, TFCP2 / RFU, GMCL1 /// GMCL1P1 / Fold change vs veh, GMCL1 /// GMCL1P1 / RFU, AEBP2 / Fold change vs veh, AEBP2 / RFU, SNHG1 /// SNORD22 /// SNORD25 /// SNORD26 /// SNORD27 /// SNORD28 /// SNORD29 /// SNORD31 / Fold change vs veh, SNHG1 /// SNORD22 /// SNORD25 /// SNORD26 /// SNORD27 /// SNORD28 /// SNORD29 /// SNORD31 / Fold change (Aza/veh), C12orf56 (ProbeSet 11735607_a_at) / Fold change (ACY-1035/veh), C12orf56 (ProbeSet 11735607_a_at) / Fold change (Aza/veh), FGFR1OP (ProbeSet 11751329_s_at) / Fold change (ACY-1035/veh), FGFR1OP (ProbeSet 11751329_s_at) / Fold change (Aza/veh), VPS36 (ProbeSet 11739960_a_at) / Fold change (ACY-1035/veh), VPS36 (ProbeSet 11739960_a_at) / RFU SYPL1 (11715823_x_at) / Fold change /veh SYPL1 (11715823_x_at) / RFU IGFBP7 (11715501_s_at) / Fold change /veh IGFBP7 (11715501_s_at) / RFU REEP3 (11722064_at) / Fold change /veh REEP3 (11722064_at) / RFU IGLL1 (11728026_x_at) / Fold change /veh IGLL1 (11728026_x_at): dose or concentration left out as unconfirmed
Settings: ProbeSet 11759094_a_at; LIST D

## Nc1ncn([C@@H]2O[C@H](CO)[C@@H](O)[C@H]2O)c(=O)n1 [azacitidine]
  Fold change vs veh, GNAQ: 0.76
